Reference: ChEMBL document CHEMBL5465560, “Selectivity Literature for EUbOPEN Chemogenomic Library” (2024)
One block for each compound: values may come before it.

Experiments:
[1] = target: T1, Aurora kinase A (Homo sapiens) (UniProt O14965); experiment: Selectivity interaction (KinomeScan (DiscoverX)) EUB0001619a STK6; conditions: at 1 µM
T1 sequence (whole entry): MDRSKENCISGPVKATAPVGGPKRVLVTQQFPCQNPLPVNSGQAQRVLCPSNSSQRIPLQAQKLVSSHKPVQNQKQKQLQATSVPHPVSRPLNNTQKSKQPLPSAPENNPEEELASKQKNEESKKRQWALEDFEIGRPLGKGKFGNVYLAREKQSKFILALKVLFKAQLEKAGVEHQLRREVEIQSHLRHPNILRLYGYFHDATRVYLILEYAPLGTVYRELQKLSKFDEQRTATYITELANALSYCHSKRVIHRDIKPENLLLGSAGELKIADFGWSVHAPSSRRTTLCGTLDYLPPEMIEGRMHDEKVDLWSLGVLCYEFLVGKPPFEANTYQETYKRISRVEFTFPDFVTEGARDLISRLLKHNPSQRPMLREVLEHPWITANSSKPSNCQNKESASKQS

[2] = target: T2, Serine/threonine-protein kinase 3 (Homo sapiens) (UniProt Q13188); experiment: Selectivity interaction (Kinase panel (KiNativ target engagement assay in Jurkat cells)) EUB0001635a STK3; assay type: cell-based; conditions: Selectivity number of off-targets 0.0, Selectivity number of targets 233.0, Source Knowledge https://www.sciencedirect.com/science/article/pii/S2451945619300674?via%3Dihub, at 1 µM
T2 sequence (whole entry): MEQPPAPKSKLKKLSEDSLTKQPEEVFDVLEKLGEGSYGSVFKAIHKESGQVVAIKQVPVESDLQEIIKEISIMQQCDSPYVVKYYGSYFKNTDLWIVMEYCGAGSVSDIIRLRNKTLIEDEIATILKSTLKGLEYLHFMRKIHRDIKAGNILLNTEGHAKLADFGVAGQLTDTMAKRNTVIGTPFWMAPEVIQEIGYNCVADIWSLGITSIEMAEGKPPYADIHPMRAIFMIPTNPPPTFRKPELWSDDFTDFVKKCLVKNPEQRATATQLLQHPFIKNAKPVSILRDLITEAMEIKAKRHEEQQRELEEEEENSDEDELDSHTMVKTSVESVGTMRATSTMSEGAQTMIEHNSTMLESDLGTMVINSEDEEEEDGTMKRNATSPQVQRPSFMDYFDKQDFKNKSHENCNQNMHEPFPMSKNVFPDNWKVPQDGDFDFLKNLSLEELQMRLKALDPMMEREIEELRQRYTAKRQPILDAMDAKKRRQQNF

[3] = target: T3, Mitogen-activated protein kinase kinase kinase 7 (Homo sapiens) (UniProt O43318); experiment: Selectivity interaction (KinomeScan (DiscoverX)) EUB0000229b MAP3K7; conditions: at 10 µM
T3 sequence (whole entry): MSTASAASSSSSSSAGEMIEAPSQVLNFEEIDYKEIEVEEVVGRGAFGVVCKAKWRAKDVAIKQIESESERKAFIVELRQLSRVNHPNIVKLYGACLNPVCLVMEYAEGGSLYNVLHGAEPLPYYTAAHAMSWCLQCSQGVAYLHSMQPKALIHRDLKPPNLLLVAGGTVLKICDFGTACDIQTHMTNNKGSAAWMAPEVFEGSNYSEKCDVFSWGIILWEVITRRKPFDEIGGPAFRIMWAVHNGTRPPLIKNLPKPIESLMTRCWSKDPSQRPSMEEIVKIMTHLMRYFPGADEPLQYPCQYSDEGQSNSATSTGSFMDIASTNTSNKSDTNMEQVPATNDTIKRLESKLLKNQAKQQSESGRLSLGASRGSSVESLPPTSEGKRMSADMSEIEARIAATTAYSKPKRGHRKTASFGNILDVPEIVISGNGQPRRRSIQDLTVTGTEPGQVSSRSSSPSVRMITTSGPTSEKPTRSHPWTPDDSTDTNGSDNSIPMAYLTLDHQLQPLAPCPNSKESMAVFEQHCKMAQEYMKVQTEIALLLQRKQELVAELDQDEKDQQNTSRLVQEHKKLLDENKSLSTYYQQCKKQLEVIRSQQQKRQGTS

[4] = target: Ribosomal protein S6 kinase alpha-3 (Homo sapiens, UniProt P51812); experiment: Selectivity interaction (KinomeScan (DiscoverX)) EUB0000311b RPS6KA3; conditions: at 1 µM
[5] = target: T4, Serine/threonine-protein kinase ICK (Homo sapiens) (UniProt Q9UPZ9); experiment: Selectivity interaction (LanthaScreen Eu Kinase Binding Assay) EUB0001632a ICK; conditions: at 10 µM
T4 sequence (whole entry): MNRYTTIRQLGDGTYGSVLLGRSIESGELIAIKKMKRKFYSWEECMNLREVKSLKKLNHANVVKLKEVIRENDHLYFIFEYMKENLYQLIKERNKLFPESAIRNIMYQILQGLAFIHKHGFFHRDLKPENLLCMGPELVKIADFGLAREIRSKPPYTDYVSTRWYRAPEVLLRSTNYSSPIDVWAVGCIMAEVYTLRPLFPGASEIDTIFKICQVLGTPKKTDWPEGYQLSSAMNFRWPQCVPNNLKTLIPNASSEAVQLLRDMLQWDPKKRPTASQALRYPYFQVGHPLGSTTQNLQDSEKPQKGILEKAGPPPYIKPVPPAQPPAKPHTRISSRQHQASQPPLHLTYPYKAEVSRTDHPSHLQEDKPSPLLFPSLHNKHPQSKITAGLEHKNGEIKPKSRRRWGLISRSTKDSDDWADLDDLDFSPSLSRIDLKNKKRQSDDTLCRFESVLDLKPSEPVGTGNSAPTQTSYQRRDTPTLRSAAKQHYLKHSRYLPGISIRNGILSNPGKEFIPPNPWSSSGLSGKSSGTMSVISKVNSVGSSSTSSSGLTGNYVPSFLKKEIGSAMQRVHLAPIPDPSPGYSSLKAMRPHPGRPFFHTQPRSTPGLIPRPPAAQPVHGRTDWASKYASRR

Chain of Ribosomal protein S6 kinase alpha-3 (P51812 whole entry): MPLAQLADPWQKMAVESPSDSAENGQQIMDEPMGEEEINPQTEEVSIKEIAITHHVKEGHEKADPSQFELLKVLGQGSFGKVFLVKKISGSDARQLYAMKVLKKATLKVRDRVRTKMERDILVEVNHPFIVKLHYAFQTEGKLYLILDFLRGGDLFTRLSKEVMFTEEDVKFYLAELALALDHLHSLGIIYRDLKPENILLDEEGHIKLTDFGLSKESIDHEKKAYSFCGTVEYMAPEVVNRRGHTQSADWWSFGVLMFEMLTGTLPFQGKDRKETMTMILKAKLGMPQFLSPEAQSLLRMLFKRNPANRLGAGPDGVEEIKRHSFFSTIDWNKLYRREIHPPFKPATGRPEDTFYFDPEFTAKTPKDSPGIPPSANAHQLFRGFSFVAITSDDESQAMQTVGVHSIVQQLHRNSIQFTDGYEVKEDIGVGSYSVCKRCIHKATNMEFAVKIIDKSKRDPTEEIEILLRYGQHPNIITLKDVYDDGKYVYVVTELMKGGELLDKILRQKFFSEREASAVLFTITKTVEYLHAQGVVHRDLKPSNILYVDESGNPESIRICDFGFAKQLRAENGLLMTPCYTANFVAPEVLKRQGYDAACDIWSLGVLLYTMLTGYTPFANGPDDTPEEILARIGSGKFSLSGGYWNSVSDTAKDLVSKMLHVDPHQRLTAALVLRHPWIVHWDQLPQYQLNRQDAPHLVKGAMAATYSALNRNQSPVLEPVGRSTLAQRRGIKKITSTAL

SMILES: N#Cc1cccc(-c2c[nH]c3ncnc(N4CCOCC4)c23)c1
% of control [1]: 57%

SMILES: C=CC(=O)Nc1ccc(C(=O)Nc2[nH]nc3c2CN(C(=O)N[C@H](CN(C)C)c2ccccc2)C3(C)C)cc1
% of engagement [2]: 1%

SMILES: COc1cc(N(C)c2ccnc3ccc(C(F)(F)F)cc23)cc(OC)c1OC
% binding [3]: 80%

% of control [4]: 0.3%
SMILES: CCc1ccccc1C(=O)Nc1n[nH]c2c(C)c(F)c(C3C(C#N)=C(C)N(C)C(C)=C3C#N)cc12 [BAY-3827]

% of inhibition [5]: -3.44%
SMILES: Cn1cc(-n2cnc3c(NCc4nc5cc(Cl)c(Cl)cc5[nH]4)nc(N4CCOCC4)nc32)cn1
